# Data reported in patent US4122034A, “Antimicrobial compositions” (Schering Corporation, priority 1975, dated 1978).
# Columns and labels:
# Candida albicans = test: In vitro Anti-Candida activity, dilutions in Sabouraud's Dextrose Agar (Table III); assay type: cell-based; settings: 48 h
# Procedure: (§1) All the tests were carried out and (when necessary) scored under standard conditions. "MIC" means "minimum inhibitory concentration."
# In vitro Anti-Candida Activity of 2-aminoalkyl-3-phenyl-
# indoles of the formula I. Dilutions in Sabouraud's Dextrose
# MIC (mcg/ml) after 48 hours
# Trychomonas vaginalis = test: In vitro Anti-Trichomonal activity (Table VII); assay type: cell-based
# Procedure: as §1
# In vitro Anti-Trichomonal Activity of some 2-aminoalkyl-3-
# phenyl-indenes of formula II.
# Bacteroides corrodens = test: In vitro activity against anaerobes in fluid Thioglycollate medium (Table II); assay type: cell-based; settings: Eikenella corrodens
# Outline: (§2)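 Tests were run and, where needed, scored under standard conditions. Values are minimum inhibitory concentrations (MIC).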
# Eubacterium lentum = test: as above; assay type: cell-based; settings: Eggerthella lenta
# Outline: as §2
# Clostridium histolyticum = test: as above; assay type: cell-based; settings: Hathewaya histolytica
# Outline: as §2
# Clostridium septicum = test: as above; assay type: cell-based
# Outline: as §2
# [1] = tested on: Bacteroides melaninogenicus; test: as above; assay type: cell-based
# Outline: as §2
# Bacteroides fragilis = test: as above; assay type: cell-based
# Outline: as §2
# Peptostreptococcus = test: as above; assay type: cell-based
# Outline: as §2
# Clostridium novyi = test: as above; assay type: cell-based
# Outline: as §2
# [2] = Acute toxicity in mice (Table V); settings: mouse, in vivo
# Procedure: as §1
# Acute Toxicity of 2-aminoalkyl-3-phenylindoles of the formula I
# Trichophyton rubrum = test: In vitro antifungal activity, dilutions in Sabouraud's Dextrose Broth (Table IV); assay type: cell-based; settings: 96 h
# Outline: (§3)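 Tests were run and, where needed, scored under standard conditions. Values are minimum inhibitory concentrations (MIC) from serial broth dilution.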
# Trichophyton gallinae = test: as above; assay type: cell-based; settings: after 96 hours
# Outline: as §3
# Tricoderm sp. = test: as above; assay type: cell-based; settings: after 96 hours
# Outline: as §3
# Trichophyton ascoides = test: as above; assay type: cell-based; settings: after 96 hours
# Outline: as §3
# Trichophyton discoides = test: as above; assay type: cell-based; settings: after 96 hours
# Outline: as §3
# [3] = tested on: Trichophyton schoenleinii; test: as above; assay type: cell-based; settings: 96 h
# Outline: as §3
# Trichophyton soudenense = test: as above; assay type: cell-based; settings: after 96 hours
# Outline: as §3
# Trichophyton tonsurans = test: as above; assay type: cell-based; settings: after 96 hours
# Outline: as §3
# [4] = tested on: Trichophyton mentagrophytes; test: as above; assay type: cell-based; settings: 96 h
# Outline: as §3
# Aspergillus sp. No. 3 = test: as above; assay type: cell-based; settings: after 96 hours
# Outline: as §3
# Aspergillus niger 6275 = test: as above; assay type: cell-based; settings: after 96 hours
# Outline: as §3
# Microsporum nanum = test: as above; assay type: cell-based; settings: Nannizzia nana; after 96 hours
# Outline: as §3
# Trichophyton ferrugineum = test: as above; assay type: cell-based; settings: Microsporum ferrugineum; after 96 hours
# Outline: as §3
# Epidermophyton floccosum = test: as above; assay type: cell-based; settings: after 96 hours
# Outline: as §3
# Trichophyton megninii = test: as above; assay type: cell-based; settings: Trichophyton rubrum; after 96 hours
# Outline: as §3
# Microsporum distortum = test: as above; assay type: cell-based; settings: after 96 hours
# Outline: as §3
# Proteus mirabilis = test: In vitro antibacterial activity, dilution in Mueller Hinton Agar (Table I); assay type: cell-based; settings: Mueller Hinton Agar pH 7.4
# Outline: (§4)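 Agar dilution at pH 7.4, run and scored under standard conditions. Values are minimum inhibitory concentrations (MIC).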
# Staphylococcus aureus = test: as above; assay type: cell-based; settings: Mueller Hinton Agar pH 7.4
# Outline: as §4
# Enterococcus = test: as above; assay type: cell-based
# Outline: as §4
smiles,measurement,setting,value
NCc1[nH]c2ccc(Cl)cc2c1-c1ccc(Cl)cc1Cl [E],MIC,"Candida albicans; strain 1, after 48 hours",37.5 µg/mL
same,MIC,"Candida albicans; strain 2, after 48 hours",37.5 µg/mL
same,MIC,"Candida albicans; strain 3, after 48 hours",37.5 µg/mL
same,MIC,"Candida albicans; strain 4, after 48 hours",17.5 µg/mL
same,MIC,"Candida albicans; strain 5, after 48 hours",17.5 µg/mL
same,MIC,"Candida albicans; strain 6, after 48 hours",37.5 µg/mL
same,MIC,"Candida albicans; strain 8, after 48 hours",37.5 µg/mL
same,MIC,"Candida albicans; strain 9, after 48 hours",37.5 µg/mL
same,MIC,"Candida albicans; strain 29, after 48 hours",37.5 µg/mL
same,MIC,"Candida albicans; strain Atkisson, after 48 hours",37.5 µg/mL
same,MIC,"Candida albicans; strain Bertrand, after 48 hours",37.5 µg/mL
same,MIC,"Candida albicans; strain Bevan, after 48 hours",37.5 µg/mL
same,MIC,"Candida albicans; strain Blunden, after 48 hours",37.5 µg/mL
same,MIC,"Candida albicans; strain Bognay, after 48 hours",37.5 µg/mL
same,MIC,"Candida albicans; strain Boyer, after 48 hours",37.5 µg/mL
same,MIC,"Candida albicans; strain Burke, after 48 hours",37.5 µg/mL
same,MIC,"Candida albicans; strain Burnside, after 48 hours",37.5 µg/mL
same,MIC,"Candida albicans; strain Collins, after 48 hours",37.5 µg/mL
same,MIC,"Candida albicans; strain Fix, after 48 hours",37.5 µg/mL
same,MIC,"Candida albicans; strain Frazier, after 48 hours",37.5 µg/mL
same,MIC,"Candida albicans; strain Fulcher, after 48 hours",37.5 µg/mL
same,MIC,"Candida albicans; strain Gay, after 48 hours",37.5 µg/mL
same,MIC,"Candida albicans; strain Hons, after 48 hours",37.5 µg/mL
same,MIC,"Candida albicans; strain Johnson, after 48 hours",37.5 µg/mL
same,MIC,"Candida albicans; strain Kenndy 2, after 48 hours",37.5 µg/mL
same,MIC,"Candida albicans; strain Kennedy 1, after 48 hours",37.5 µg/mL
same,MIC,"Candida albicans; strain Lehtman, after 48 hours",37.5 µg/mL
same,MIC,"Candida albicans; strain Lusk, after 48 hours",37.5 µg/mL
same,MIC,"Candida albicans; strain Merkel, after 48 hours",37.5 µg/mL
same,MIC,"Candida albicans; strain Newcomb, after 48 hours",17.5 µg/mL
same,MIC,"Candida albicans; strain Sherod, after 48 hours",37.5 µg/mL
same,MIC,"Candida albicans; strain Shurelli, after 48 hours",37.5 µg/mL
same,MIC,"Candida albicans; strain Sparks, after 48 hours",37.5 µg/mL
same,MIC,"Candida albicans; strain Tyner, after 48 hours",37.5 µg/mL
same,IC50,"Trychomonas vaginalis; 50% suppression, read-out: Minimal Level to Produce 50% Suppression",14 µg/mL
same,IC90,"Trychomonas vaginalis; 90% suppression, read-out: Minimal Level to Produce 90% Suppression",28 µg/mL
same,MIC,Bacteroides corrodens; 48 hrs,0.75 µg/mL
same,MIC,Bacteroides corrodens; 72 hrs,3 µg/mL
same,MIC,Eubacterium lentum; 48 hrs,3 µg/mL
same,MIC,Eubacterium lentum; 72 hrs,3 µg/mL
same,MIC,Clostridium histolyticum; 48 hrs,0.3 µg/mL
same,MIC,Clostridium histolyticum; 72 hrs,0.3 µg/mL
same,MIC,Clostridium septicum; 48 hrs,0.75 µg/mL
same,MIC,Clostridium septicum; 72 hrs,0.75 µg/mL
same,MIC,[1]; 48 hrs,3 µg/mL
same,MIC,[1]; 72 hrs,3 µg/mL
same,MIC,Bacteroides fragilis; 48 hrs,0.75 µg/mL
same,MIC,Bacteroides fragilis; 72 hrs,0.75 µg/mL
same,MIC,Peptostreptococcus; 48 hrs,0.75 µg/mL
same,MIC,Peptostreptococcus; 72 hrs,0.75 µg/mL
same,MIC,Clostridium novyi; 48 hrs,0.75 µg/mL
same,MIC,Clostridium novyi; 72 hrs,0.75 µg/mL
same,LD50,[2]; Oral,~700 mg/kg
same,LD50,"[2]; ip, I.P.",85 mg/kg
same,LD50,"[2]; sc, S.C.",540 mg/kg
same,MIC,"Trichophyton rubrum; strain 3, after 96 hours",3 µg/mL
same,MIC,"Trichophyton rubrum; strain 360, after 96 hours",3 µg/mL
same,MIC,"Trichophyton rubrum; strain Blehl, after 96 hours",3 µg/mL
same,MIC,"Trichophyton rubrum; strain Haggerty, after 96 hours",3 µg/mL
same,MIC,Trichophyton gallinae,17.5 µg/mL
same,MIC,Tricoderm sp.,3 µg/mL
same,MIC,Trichophyton ascoides,7.5 µg/mL
same,MIC,Trichophyton discoides,7.5 µg/mL
same,MIC,"[3]; strain 2, after 96 hours",3 µg/mL
same,MIC,"[3]; strain not given, after 96 hours",3 µg/mL
same,MIC,Trichophyton soudenense,7.5 µg/mL
same,MIC,Trichophyton tonsurans,7.5 µg/mL
same,MIC,"[4]; strain A, after 96 hours",3 µg/mL
same,MIC,"[4]; strain B, after 96 hours",17.5 µg/mL
same,MIC,"[4]; strain C, after 96 hours",17.5 µg/mL
same,MIC,"[4]; strain H377, after 96 hours",7.5 µg/mL
same,MIC,"[4]; strain Young, after 96 hours",3 µg/mL
same,MIC,Aspergillus sp. No. 3,17.5 µg/mL
same,MIC,Aspergillus niger 6275,17.5 µg/mL
same,MIC,Microsporum nanum,3 µg/mL
same,MIC,Trichophyton ferrugineum,7.5 µg/mL
same,MIC,Epidermophyton floccosum,3 µg/mL
same,MIC,Trichophyton megninii,3 µg/mL
same,MIC,Microsporum distortum,3 µg/mL
same,MIC,"Proteus mirabilis; pH 7.4, strain Hard",3 µg/mL
same,MIC,"Proteus mirabilis; pH 7.4, strain Peras",17.5 µg/mL
same,MIC,"Staphylococcus aureus; 209P, pH 7.4, strain 209P",3 µg/mL
same,MIC,"Staphylococcus aureus; pH 7.4, strain 59N",3 µg/mL
same,MIC,"Staphylococcus aureus; pH 7.4, strain Gray",3 µg/mL
same,MIC,"Staphylococcus aureus; pH 7.4, strain Wood",3 µg/mL
same,MIC,"Staphylococcus aureus; pH 7.4, strain Zeigler",0.8 µg/mL
same,MIC,"Enterococcus; pH 7.4, strain 373, Mueller Hinton Agar pH 7.4",3 µg/mL
same,MIC,"Enterococcus; pH 7.4, strain 0928/72, Mueller Hinton Agar pH 7.4",3 µg/mL
